The text below walks through data of patent US11464821B2, “Composition for reducing cancer cachexia or weight loss caused by anticancer drug therapy or radiation therapy comprising ginseng extract having increased ginsenoside Rg3 and Rh2” (GREEN CROSS WELLBEING CORPORATION, priority 2013, dated 2022).

Like-named read-outs stand apart in the source and are kept apart here. Marks after values point to notes of the source that are not given here.

What all share (format): in vivo, Balb/c-nu/nu mice
Data set [1] concerns animal models xenografted with HT-29 colon cancer cell line. The experiment in a line: Glycogen synthesized in femoral muscle (ELISA kit) under radiation treatment, test example 3. On the procedure:
(§1) 6-wk-old Balb/c-nu/nu female mice weighing 20±2 g were obtained from Orient Inc., and housed in animal rooms under a temperature of 23±1° C., relative humidity of 55±15%, and 12-hour light/dark illumination cycle. […] After acclamation for 1 week, 100 μl of HT-29 cells (5×10^6 cells/mouse) were subcutaneously injected into the flank of the Balb/c nu/nu mouse, and the mice were observed by the naked eyes. The mice were randomized into groups when the tumor size reached 150 mm^3, and then drug administration was initiated. Voluntary motor activity (running wheel activity) and forced motor activity (swimming test) were measured after the administration of anticancer drug and drugs was completed, and the amount of glycogen synthesized in the muscle was assayed through an ELISA kit after the tissue taken from the femoral region on the final date of autopsy was homogenized. Running wheel activity (Running distance=meter/10 min)
(§2) All the examples and comparative examples were diluted in phosphate buffered saline (PBS) according to the dosage, and compulsorily administered to the animals using needle for oral administration (Sonde). The dosage was diluted in PBS to 100 mg/kg of body weight, and the dosage was calculated such that 100 μl/20 g was administered depending on the weight measured on the day of administration. Test materials were administered at the same time once per day, at 10 AM, for 4 weeks, for the examples and comparative examples.
Evaluation was conducted in the same conditions as in test example 1, except that all the examples and comparative examples were compared in the conditions of radiation treatment. The radiation treatment was conducted at 10 Gy three times per week.
In general terms: ELISA stands for enzyme-linked immunosorbent assay.

Data set [2] has the same test system. On the procedure: as §1, §2
Evaluation was conducted in the same conditions as in test example 1, except that all the examples and comparative examples were compared in the conditions of treatment with an anticancer drug. The treatment with 5-FU as an anticancer drug was conducted at 30 mg/kg three times per week.

For data set [3] the test system is unchanged. Nature of the data set: Running wheel activity (voluntary motor activity), test example 1. The following applies: HT-29 xenografted mice, 100 mg/kg oral, every day for 4 weeks. On the procedure:
as §1
The voluntary motor activity was measured as the parameter of cancer-related fatigue (CRF) through running wheel activity. The number of wheels ran for a total of 10 min on 300Ø wheel was counted, and running distance was calculated. *Running distance=circumference (30 cm×3.14)×number of wheels/10 min […]

Data set [4] shares this test system. Nature of the data set: Swimming test (forced motor activity), test example 1. The conditions noted are these: HT-29 xenografted mice, 100 mg/kg oral, every day for 4 weeks. On the procedure: as §1
A transparent temperature-constant water bath (500 mm×500 mm×400 mm), which maintained the designated temperature and water level, was filled with warm water (23±1° C.), and then the animals were subjected to forced swimming (FS). The swimming time immediately after total exhaustion was recorded. […]

Consider `NC(=O)C[S+]([O-])C(c1ccccc1)c1ccccc1` (stereo not drawn) [Comparative example 12, Modafinil], for which the “Mean Muscle Glycogen” value worked out at 3.9 ± 0.2 mg/g in data set [1] (HT-29 xenografted mice, with radio therapy 10 Gy 3 days per week, oral daily for 4 weeks, femoral muscle) and 4.3 ± 0.5 mg/g in data set [2] (HT-29 xenografted mice, co-administered with 5-FU 30 mg/kg i.p. 3 days per week, 100 mg/kg oral daily for 4 weeks, femoral muscle). In data set [1] (combined with radiation treatment for 4 weeks), the “amount of glycogen synthesis compared with control group treated with radiation (in words)” value is on record as “did not show any great change”. Moreover, the “Increase (%) in glycogen synthesis, compared with control” value is on record as 7.9% in data set [1] (with radio therapy 10 Gy 3 days per week, oral daily for 4 weeks, vs radio therapy control) and 18.4% in data set [2] (co-administered with 5-FU 30 mg/kg i.p. 3 days per week, 100 mg/kg oral daily for 4 weeks, vs 5-FU control). Besides, the “amount of glycogen synthesis compared with control group administered with the anticancer drug (in words)” value in data set [2] (co-administered with 5-FU for 4 weeks) is reported as “did not show any great change”. Also, in data set [3], the “Running distance for 10 min (meter/10 min)” value is reported as 80.1 ± 1.9** meter/10 min. Besides, the “Incerase (%) in running distance for 10 min, compared with control” value in data set [3] (vs xenograft control) turned out to be 52.6%. Further, the “Total swimming time” value in data set [4] (forced swimming to exhaustion, water 23±1° C.) came to 731.8 ± 60.1 s. Moreover, the “Increase (%) in swimming time, compared with control” value in data set [4] (vs xenograft control) was found to be 63.5%.

Regarding `O=c1[nH]cc(F)c(=O)[nH]1` [Example 5-FU, 5-fluorouracil], in data set [2] (mouse, in vivo), the “Mean Muscle Glycogen (mg/g), 5-FU control” value is 3.6 ± 0.34 mg/g and the “reduction of amount of glycogen synthesis compared with the normal groups” value stood at 51.4%.
